In US9969710B2, “Heteroaryl compounds as IRAK inhibitors and uses thereof” (Merck Patent GmbH, priority 2015, dated 2018):

Tests used:
IRAK1 = target: T1, IRAK1 (Homo sapiens, UniProt P51617); experiment: IRAK1 enzymatic assay (ADP-Glo luminescence); assay type: biochemical; settings: human recombinant His-TEV-IRAK1 (194-712), ATP 1 μM; read-out: IRAK 1 IC50
T1 construct: His-TEV-IRAK1 (194-712); His (N); TEV cleavage site (N)
How it was run: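 His-TEV-IRAK1(194-712) ([…]) preincubated 15 min RT with compounds (10 μM–0.5 nM) in 50 mM Hepes pH 7.0, 10 mM MgCl2, 2 mM DTT, 0.1% BSA. Reaction started with 1 μM ATP, 2 h RT. ADP formed read by ADP-Glo luminescence.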

IRAK4 = target: T2, IRAK4 (Homo sapiens, UniProt Q9NWZ3); experiment: IRAK4 enzymatic assay (ADP-Glo luminescence); assay type: biochemical; settings: human recombinant His-TEV-IRAK4 (1-460), STK1-biotin peptide substrate
T2 construct: His-TEV-IRAK4 (1-460); His (N); TEV cleavage site (N)
T2 sequence (Q9NWZ3 1-460): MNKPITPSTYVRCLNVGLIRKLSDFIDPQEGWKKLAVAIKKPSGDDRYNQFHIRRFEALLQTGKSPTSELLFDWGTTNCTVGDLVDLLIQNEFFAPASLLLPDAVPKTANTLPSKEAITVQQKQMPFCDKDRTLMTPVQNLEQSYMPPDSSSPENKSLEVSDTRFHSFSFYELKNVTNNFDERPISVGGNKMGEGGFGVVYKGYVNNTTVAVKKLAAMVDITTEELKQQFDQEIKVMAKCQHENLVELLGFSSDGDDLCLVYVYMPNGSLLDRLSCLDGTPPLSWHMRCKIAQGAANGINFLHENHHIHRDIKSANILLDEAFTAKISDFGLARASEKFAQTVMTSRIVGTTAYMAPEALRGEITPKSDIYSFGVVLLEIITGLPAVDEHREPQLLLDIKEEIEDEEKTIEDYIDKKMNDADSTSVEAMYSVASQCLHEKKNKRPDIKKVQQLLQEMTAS
How it was run: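 His-TEV-IRAK4(1-460) at […] was preincubated with compound (10 μM to 0.5 nM) for 15 min at RT in 50 mM Hepes pH 7.0 with MgCl2, MnCl2, DTT, BSA and Triton. Reactions with ATP ([…]) and STK1-biotin peptide (300 nM) ran 2 h at RT. ADP formed was read by ADP-Glo luminescence.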

[1] = test system: TLR7 induced IL-6 secretion in human mononuclear cells (PBMC's); experiment: TLR7 induced IL-6 in human PBMC's; assay type: cell-based; settings: Homo sapiens, PBMC, TLR7 specific ligand 2 uM overnight, IL-6 AlphaLISA
How it was run: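 Fresh or frozen healthy-donor PBMCs pre-treated 30 min at 37 °C with compounds (25 uM to 0.4 nM) before overnight (16-18 h) stimulation with TLR7 ligand at 2 uM. IL-6 in supernatant quantified by AlphaLISA.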

T1 sequence (P51617 194-712): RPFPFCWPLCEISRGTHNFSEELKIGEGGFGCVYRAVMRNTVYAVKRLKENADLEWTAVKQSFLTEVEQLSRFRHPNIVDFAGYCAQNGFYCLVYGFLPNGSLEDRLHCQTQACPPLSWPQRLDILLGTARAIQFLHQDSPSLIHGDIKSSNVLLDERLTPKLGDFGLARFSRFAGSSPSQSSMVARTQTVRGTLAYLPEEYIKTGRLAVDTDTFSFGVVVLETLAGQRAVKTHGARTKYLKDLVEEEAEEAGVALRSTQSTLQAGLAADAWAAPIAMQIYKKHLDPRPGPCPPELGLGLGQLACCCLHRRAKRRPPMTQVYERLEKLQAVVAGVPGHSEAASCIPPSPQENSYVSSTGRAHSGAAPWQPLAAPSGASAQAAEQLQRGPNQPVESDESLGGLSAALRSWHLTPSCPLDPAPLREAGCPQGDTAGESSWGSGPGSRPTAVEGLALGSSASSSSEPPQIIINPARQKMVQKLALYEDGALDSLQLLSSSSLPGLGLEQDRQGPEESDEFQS

SMILES | IC50 (IRAK1) | melting point | IC50 (IRAK4) | IC50 [1]
CN1CC(c2ccc3c(c2)nc(NC(=O)c2cccc(C(F)F)c2)n3CCCO)C(C)(C)C1=O (stereo not drawn) [Compound 27, 3-Difluoromethyl-N-[1-(3-hydroxy-propyl)-5-(1,4,4-trimethyl-5-oxo-pyrrolidin-3-yl)-1H-benzoimidazol-2-yl]-benzamide] | 100 to 1000 nM | 95 to 96 °C | ≤ 100 nM | 100 to 1000 nM
CN1CCOC(c2ccc3c(c2)nc(NC(=O)c2cccc(C(F)(F)F)c2)n3CC(C)(F)CO)C1=O (stereo not drawn) [Compound 28, N-[1-(2-Fluoro-3-hydroxy-2-methyl-propyl)-5-(4-methyl-3-oxo-morpholin-2-yl)-1H-benzoimidazol-2-yl]-3-trifluoromethyl-benzamide] | 100 to 1000 nM | 121 to 124 °C | ≤ 100 nM | ≤ 100 nM
CN1C(=O)CCC1(C)c1ccc2c(c1)nc(NC(=O)c1cccc(C(F)(F)F)c1)n2CCCO (stereo not drawn) [Compound 32, N-[5-(1,2-Dimethyl-5-oxo-pyrrolidin-2-yl)-1-(3-hydroxy-propyl)-1H-benzoimidazol-2-yl]-3-trifluoromethyl-benzamide] | 100 to 1000 nM | 99 to 100 °C | ≤ 100 nM | 1000 to 10000 nM
